Assay results reported in US4786755A, “Diphenic acid monoamides” (Warner-Lambert Company, priority 1986, dated 1988).

biological target: T1, leukotriene receptor (Cavia porcellus, UniProt Q2NNR5); assay: Binding of ^3 H-Leukotriene D4 to Guinea Pig Lung Membranes (RBL); conditions: ^3 H-LTD4, guinea pig lung membranes; read-out: IC50 RBL1
T1 construct: 20 mg original tissue wet weight of guinea pig lung membranes; tissue Kuiper Rabbit Farm, Gary, IN (animals); host or cells: guinea pig lung, crude membranes
T1 sequence (Q2NNR5 1-340): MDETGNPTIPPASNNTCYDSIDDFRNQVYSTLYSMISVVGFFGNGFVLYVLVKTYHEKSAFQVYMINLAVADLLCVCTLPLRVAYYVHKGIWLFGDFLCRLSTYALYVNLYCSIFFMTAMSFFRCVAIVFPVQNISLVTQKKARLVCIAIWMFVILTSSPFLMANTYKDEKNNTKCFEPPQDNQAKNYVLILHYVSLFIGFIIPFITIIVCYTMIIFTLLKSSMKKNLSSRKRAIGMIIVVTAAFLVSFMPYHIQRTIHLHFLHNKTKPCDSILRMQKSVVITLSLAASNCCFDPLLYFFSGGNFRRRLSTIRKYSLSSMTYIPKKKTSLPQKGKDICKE
Experimental: Additionally, the activity, of the compounds having the Formula I of the present invention is determined by the well known leukotriene receptor binding assay that is described by R. F. Bruns, W. J. Thomsen and T. A. Pugsley in Life Sciences, 33, 645 (1983) or the Herxheimer in vivo antiallergy test described in H. Herxheimer, J. Physiol. (London), Vol. 177, p. 251 (1952).
Binding of ^3 H-Leukotriene D4 to Guinea Pig Lung Membranes (RBL)
[14,15-^3 H]leukotriene D4 (^3 H-LTD4) (25 Ci/mmol and 40 Ci/mmol) is purchased from New England Nuclear. Unlabeled LTC4 is a gift of Ono Pharmaceuticals (Japan). LTC4, LTD4, and LTE4 are purchased as methyl esters from Paesel GmbH (Frankfurt, W. Germany). Concentrations of the Paesel leukotrienes are calculated from their absorbance at 280 nm. Leukotriene esters are saponified overnight under N2 in 3.3% potassium carbonate at room temperature. Tritiated leukotrienes are stored as received from New England Nuclear at -20° C. Ono LTC4 (5 μg/ml is stored at -60° C. in phosphate buffer pH 6.8. Saponified Paesel leukotrienes are stored at -60° C. in 3.3% potassium carbonate (pH 9.0-9.5). Aliquots of leukotrienes are taken from stock solutions immediately after thawing, after which the stock solutions are immediately refrozen. 2-Amino-2-(hydroxymethyl)-1,3-propanediol (Tris) is Sigma pH 7.7 pre-set crystals, and dimethylsulfoxide is Aldrich Gold Label.
Preparation of crude lung membranes
Two pairs of lungs (1.3 g) from freshly sacrificed 300 g male guinea pigs (older animals gave substantially lower binding) from Kuiper Rabbit Farm, Gary, IN are disrupted with a Polytron PT 10 (setting 4) for 30 seconds in 20 ml ice-cold 50 mM Tris adjusted with HCl to pH 7.7 at 25° C. (Tris buffer), filtered through a single layer of gauze to remove connective tissue, and centrifuged at 50,000 xg for ten min. The pellet is resuspended by homogenization with a Polytron in 20 ml Tris buffer, centrifuged at 50,000 xg for ten min., resuspended, incubated at 37° C. for 30 minutes, and centrifuged again. The final pellet is resuspended in Tris buffer and either used fresh or stored at -70° C.
All incubations are in triplicate for 60 minutes at 25° C. in 12×75 mm polystyrene tubes containing 1 ml Tris buffer with 20 mg original tissue wet weight of guinea pig lung membranes, 0.2 nM ^3 H-LTD4 (6,000-11,000 cpm), 10 mM MgCl2, and 1% dimethylsulfoxide. Leukotrienes are diluted in Tris buffer. All other test compounds are dissolved at 10 mM in dimethylsulfoxide on the same day as the experiment, and diluted in dimethylsulfoxide to 100× the final incubation concentration. Control incubations receive an equal volume (10 μl) of dimethylsulfoxide; the resulting concentration of dimethylsulfoxide had no effect on binding. ^3 H-LTD4 is diluted to 2 nM in Tris buffer. The membrane suspension (20 mg/0.89 ml) contains sufficient MgCl2 to give 10 mM final concentration in the incubation. […] All additions are performed at 0° C. Immediately after the last addition, the incubation is initiated by agitating the rack of tubes on a vortex mixer and warming to 25° C. in a water bath. Tubes are vortexed at least once more during the incubation to ensure that the membranes remained suspended. Incubations are terminated after 60 minutes by filtering under reduced pressure through 25 mm Whatman GF/B filters followed by rapid washing three times with 4 ml of ice-cold Tris buffer. Filters are added to scintillation vials with 8 ml Formula 947 (New England Nuclear), left overnight, shaken, and the radioactivity counted in a scintillation counter (efficiency 40%). Nonspecific binding, defined as binding of ^3 H-LTD4 in the presence of 100 nM LTC4, is 300-500 cpm for all lots of ^3 H-LTD4. Binding to the filters in the absence of tissue is about 100 cpm, and is not affected by unlabeled LTC4. Specific binding, defined as total binding minus nonspecific binding, varied considerably from lot to lot of ^3 H-LTD4. […]

SMILES | IC50 [µM]
O=C(O)c1ccccc1-c1ccccc1C(=O)Nc1ccc(Cc2ccc(Cl)c(Cl)c2)cc1 [Example 9] | 6.5
O=C(O)c1ccccc1-c1ccccc1C(=O)Nc1ccc(OCCCc2ccccc2)cc1 [Example 2] | 4.6
O=C(O)c1ccccc1-c1ccccc1C(=O)Nc1ccc(CCc2ccc(Cl)c(Cl)c2)cc1 [Example 3, [1,1'-Biphenyl]-2-carboxylic acid, 2'-[[[4-[2-(3,4-dichlorophenyl)ethyl]phenyl]amino]carbonyl]-] | 4.8
CN(C(=O)c1ccccc1-c1ccccc1C(=O)O)c1ccc(CCc2ccc(Cl)c(Cl)c2)cc1 [Example 5, [1,1'-Biphenyl]-2-carboxylic acid, 2'-[[[4-[2-(3,4-dichlorophenyl)ethyl]phenyl]methylamino]carbonyl]-] | 14.5
CN(C(=O)c1ccccc1-c1ccccc1C(=O)O)c1ccc(CCc2ccc(Cl)cc2)cc1 [Example 8] | 28.7
O=C(O)c1ccccc1-c1ccccc1C(=O)Nc1ccc(CCCc2ccc(Cl)c(Cl)c2)cc1 [Example 1, [1,1'-Biphenyl]-2-carboxylic acid, 2'-[[[4-[3-(3,4-dichlorophenyl)propyl]phenyl]amino]carbonyl]-] | 1
COc1ccc(CCc2ccc(NC(=O)c3ccccc3-c3ccccc3C(=O)O)cc2)cc1OC [Example 7, [1,1'-Biphenyl]-2-carboxylic acid, 2'-[[[4-[2-(3,4-dimethoxyphenyl)ethyl]phenyl]amino]carbonyl]-] | 88.7
O=C(O)c1ccccc1-c1ccccc1C(=O)Nc1cccc(CCc2ccc(Cl)c(Cl)c2)c1 [Example 4, [1,1'-Biphenyl]-2-carboxylic acid, 2'-[[[3-[2-(3,4-dichlorophenyl)ethyl]phenyl]amino]carbonyl]-] | 8.5

Second part, the compound after the results:

IC50 [µM] | SMILES
4.2 | O=C(O)c1ccccc1-c1ccccc1C(=O)Nc1ccc(CCCCc2ccc(Cl)c(Cl)c2)cc1 [Example 15, [1,1'-Biphenyl]-2-carboxylic acid, 2'-[[[4-[4-(3,4-dichlorophenyl)butyl]phenyl]amino]carbonyl]-]
2.3 | O=C(O)c1ccccc1-c1ccccc1C(=O)Nc1ccc(CCCCCc2ccccc2)cc1 [Example 21, [1,1'-Biphenyl]-2-carboxylic acid, 2'-[[[4-(5-phenylpentyl)phenyl]amino]carbonyl]-]
6.7 | O=C(O)c1ccccc1-c1ccccc1C(=O)Nc1ccc(CCCCc2ccccc2)cc1 [Example 19, [1,1'-Biphenyl]-2-carboxylic acid, 2'-[[[4-(4-phenylbutyl)phenyl]amino]carbonyl]-]
13.5 | O=C(O)c1ccccc1-c1ccccc1C(=O)Nc1ccc(CCc2ccc(Cl)cc2)cc1 [Example 11, [1,1'-Biphenyl]-2-carboxylic acid, 2'-[[4-[2-[(4-chlorophenyl)ethyl]phenyl]amino]carbonyl]-]
4.3 | O=C(O)c1ccccc1-c1ccccc1C(=O)Nc1ccc(CCCc2ccccc2)cc1 [Example 16, [1,1'-Biphenyl]-2-carboxylic acid, 2'-[[[4-(3-phenylpropyl]phenyl]amino]carbonyl]-]
